One assay has as its system ECHCG. Nature of the assay: In-water applied (paddy) greenhouse weed control, ECHCG. The format is in vivo, Echinochloa crusgalli (L.) Beauv. Here is the method: (§1) Weed seeds or nutlets of the desired test plant species were planted in puddled soil (mud) prepared by mixing a shredded, non-sterilized mineral soil (50.5 percent silt, 25.5 percent clay, and 24 percent sand, with a pH of about 7.6 and an organic matter content of about 2.9 percent) and water at a 1:1 volumetric ratio. The prepared mud was dispensed in 365 mL aliquots into 16-ounce (oz.) non-perforated plastic pots with a surface area of 86.59 square centimeters (cm^2) leaving a headspace of 3 centimeters (cm) in each pot. Mud was allowed to dry overnight prior to planting or transplanting. Rice seeds were planted in Sun Gro MetroMix® 306 planting mixture, which typically has a pH of 6.0 to 6.8 and an organic matter content of about 30 percent, in plastic plug trays. Seedlings at the second or third leaf stage of growth were transplanted into 840 mL of mud contained in 32-oz. non-perforated plastic pots with a surface area of 86.59 cm^2 4 days prior to herbicide application. The paddy was created by filling the headspace of the pots with 2.5 to 3 cm of water. When required to ensure good germination and healthy plants, a fungicide treatment and/or other chemical or physical treatment was applied. The plants were grown for 4-22 days in a greenhouse with an approximate 14 h photoperiod which was maintained at about 29′C during the day and 26° C. during the night. Nutrients were added as Osmocote® (19:6:12, N:P:K+minor nutrients) at 2 g per 16-oz. pot and 4 g per 960-mL 32-oz. pot. Water was added on a regular basis to maintain the paddy flood, and supplemental lighting was provided with overhead metal halide 1000-Watt lamps as necessary. The plants were employed for testing when they reached the second or third true leaf stage.
(§2) Treatments consisted of the acid or esters of 4-amino-3-chloro-5-fluoro-6-(4-chloro-2-fluoro-3-methoxy-phenyl)pyridine-2-carboxylic acid (compound A) each formulated as an SC and various herbicidal components alone and in combination. Forms of compound A were applied on an acid equivalent basis.
(§3) Other herbicidal components were applied on an active ingredient basis and included auxin transport inhibiting (ATI) herbicides chlorflurenol-methyl (technical material), chlorflurenol (technical material), diflufenzopyr (technical material), dilfufenzopyr sodium (technical material), flurenol-methyl (technical material,) and naptalam (technical material).
(§4) Treatment requirements for each compound or herbicidal component were calculated based upon the rates being tested, the concentration of active ingredient or acid equivalent in the formulation, an application volume of 2 mL per component per pot, and an application area of 86.59 cm^2 per pot.
(§5) For formulated compounds, a measured amount was placed in an individual 100 or 200 mL glass vial and was dissolved in a volume of 1.25% (v/v) Agri-Dex® crop oil concentrate to obtain application solutions.
(§6) For technical grade compounds, a weighed amount was placed in an individual 100 to 200 mL glass vial and was dissolved in a volume of acetone to obtain concentrated stock solutions. […] The concentrated stock solutions obtained were diluted with an equivalent volume of an aqueous mixture containing 2.5% (v/v) crop oil concentrate so that the final application solutions contained 1.25% (v/v) crop oil concentrate.
(§7) Applications were made by injecting with a pipetter appropriate amounts of the application solutions, individually and sequentially, into the aqueous layer of the paddy. Control plants were treated in the same manner with the solvent blank. Applications were made so that all treated plant material received the same concentrations of acetone and crop oil concentrate.
(§8) The treated plants and control plants were placed in a greenhouse as described above and water was added as needed to maintain a paddy flood. […]

For a further assay, the system named is ECHOR. Briefly: In-water applied (paddy) greenhouse weed control, ECHOR. Format: in vivo, Echinochloa oryzoides (Ard.) Fritsch. Here is the method: as §1, §2, §3, §4, §5, §6, §7, §8
The subject of the next assay is SCPMA. Briefly: In-water applied (paddy) greenhouse weed control, SCPMA. The format is in vivo. As to conditions: 22 DAA. As to the method: as §1, §2, §3, §4, §5, §6, §7, §8
Another assay concerns FIMMI. Nature of the assay: In-water applied (paddy) greenhouse weed control, FIMMI. The format is in vivo, Fimbristylis miliacea (L.) Vahl. To be noted: 19 DAA. Here is the method: as §1, §2, §3, §4, §5, §6, §7, §8
Another assay has as its system CYPRO. Nature of the assay: In-water applied (paddy) greenhouse weed control, CYPRO. The format is in vivo, Cyperus rotundus L. To be noted: 19 DAA. Here is the method:
as §1, §2, §3, §4, §5, §6, §7, §8

For another assay, the system named is DIGSA. Briefly: Postemergence foliar-applied greenhouse weed control, DIGSA. To be noted: 21 DAA. The format is in vivo, Digitaria sanguinalis (L.) Scop. An excerpt: (§9) Seeds or nutlets of the desired test plant species were planted in a soil matrix prepared by mixing a loam or sandy loam soil (e.g., 28.6 percent silt, 18.8 percent clay, and 52.6 percent sand, with a pH of about 5.8 and an organic matter content of about 1.8 percent) and calcareous grit in an 80 to 20 ratio. The soil matrix was contained in plastic pots with a volume of 1 quart and a surface area of 83.6 square centimeters (cm^2). When required to ensure good germination and healthy plants, a fungicide treatment and/or other chemical or physical treatment was applied. The plants were grown for 8-22 days in a greenhouse with an approximate 14 h photoperiod which was maintained at about 29° C. during the day and 26° C. during the night. Nutrients (Peters Excel® 15-5-15 5-Ca 2-Mg and iron chelate) were applied in the irrigation solution as needed and water was added on a regular basis. Supplemental lighting was provided with overhead metal halide 1000-Watt lamps as necessary. The plants were employed for testing when they reached the first through fourth true leaf stage.
(§10) Treatments consisted of the acid or esters of 4-amino-3-chloro-5-fluoro-6-(4-chloro-2-fluoro-3-methoxy-phenyl) pyridine-2-carboxylic acid (Compound A), each formulated as an SC (suspension concentrate), and various herbicidal components alone and in combination. Forms of compound A were applied on an acid equivalent basis.
(§11) Other herbicidal components were applied on an active ingredient basis and included auxin transport inhibiting (ATI) herbicides chlorflurenol (technical material), chlorflurenol-methyl (technical material), diflufenzopyr (technical material), diflufenzopyr sodium (technical material), flurenol-methyl (technical material) and naptalam (technical material).
(§12) Treatment requirements were calculated based upon the rates being tested, the concentration of active ingredient or acid equivalent in the formulation, and a 12 mL application volume at a rate of 187 L/ha.
(§13) For treatments comprised of formulated and technical compounds, weighed amounts of the technical materials were placed individually in 25 mL glass vials and dissolved in a volume of 97:3 v/v acetone/DMSO to obtain 12× stock solutions, and measured amounts of the formulated compounds were placed individually in 25 mL glass vials and diluted in a volume of 1.5% (v/v) crop oil concentrate or water to obtain 12× stock solutions. […] Application solutions were prepared by adding an appropriate amount of each stock solution (e.g., 1 mL) and diluted to the appropriate final concentrations with the addition of an appropriate amount of an aqueous mixture of 1.5% (v/v) crop oil concentrate so that the final spray solutions contained 1.25% (v/v) crop oil concentrate. When required, additional water and/or 97:3 v/v acetone/DMSO was added to individual application solutions so that the final acetone and DMSO concentrations of the application solutions being compared were 8.1% and 0.25%, respectively.
(§14) All stock solutions and applications solutions were visually inspected for compound compatibility prior to application. Spray solutions were applied to the plant material with an overhead Mandel track sprayer equipped with an 8002E nozzle calibrated to deliver 187 L/ha over an application area of 0.503 m^2 at a spray height of 18 to 20 inches (46 to 50 cm) above average plant canopy height. Control plants were sprayed in the same manner with the solvent blank.
(§15) The treated plants and control plants were placed in a greenhouse as described above and watered by sub-irrigation to prevent wash-off of the test compounds. After approximately 3 weeks, the condition of the test plants as compared with that of the untreated plants was determined visually and scored on a scale of 0 to 100 percent where 0 corresponds to no injury or growth inhibition and 100 corresponds to complete kill. […]

The next assay deals with ECHCO. Briefly: Postemergence foliar-applied greenhouse weed control, ECHCO. The format is in vivo, Echinochloa colona (L.) Link. To be noted: 21 DAA.
From the text: as §9, §10, §11, §12, §13, §14, §15

A further assay has as its system IPOHE. Briefly: Postemergence foliar-applied greenhouse weed control, IPOHE. Format: in vivo, Ipomoea hederacea Jacq.
From the text: as §9, §10, §11, §12, §13, §14, §15

The subject of the next assay is LEFCH. Nature of the assay: Postemergence foliar-applied greenhouse weed control, LEFCH. The format is in vivo, Leptochloa chinensis (L.) Nees.
From the text: as §9, §10, §11, §12, §13, §14, §15

The test system of a further assay is BRAPP. Briefly: Postemergence foliar-applied greenhouse weed control, BRAPP. Format: in vivo, Brachiaria platyphylla (Griseb.) Nash.
From the text: as §9, §10, §11, §12, §13, §14, §15

For the next assay, the system named is CYPIR. Briefly: Postemergence foliar-applied greenhouse weed control, CYPIR. Format: in vivo, Cyperus iria L. As to conditions: 22 DAA.
From the text: as §9, §10, §11, §12, §13, §14, §15

Consider `O=C(O)C1(O)c2ccccc2-c2ccc(Cl)cc21` (centres unmarked) [Chlorflurenol, reference compound], for which the “Visual Weed Control (%) Obs” value amounted to 10% in the assay with ECHCG (22 DAA, 275 gai/ha); 30% in the assay with ECHOR (22 DAA, 550 gai/ha); 45% with SCPMA (275 gai/ha); 60% in the assay on SCPMA (550 gai/ha).

For `C/C(=N\NC(=O)Nc1cc(F)cc(F)c1)c1ncccc1C(=O)O` [Diflufenzopyr sodium], the “Visual Weed Control (%) Obs” value in the assay on FIMMI (17.5 gai/ha) was 50%; in the assay with FIMMI (35 gai/ha), 55%; in the assay on FIMMI (70 gai/ha) it was 60%; in the assay with ECHCG (19 DAA, 17.5 gai/ha) it was 20%; in the assay with ECHCG (19 DAA, 35 gai/ha) it was 50%; in the assay with ECHCG (19 DAA, 70 gai/ha), 20%. Besides, the “Visual Weed Control (%) Obs” value with CYPRO (17.5 gai/ha) is reported as 0%; in the assay with CYPRO (35 gai/ha) it was 0%; in the assay on CYPRO (70 gai/ha), 10%.

Turning to `C/C(=N\NC(=O)Nc1cc(F)cc(F)c1)c1ncccc1C(=O)O` [Diflufenzopyr, 2-{(E)-1-[4-(3,5-difluorophenyl)-semicarbazono]-ethyl}nicotinic acid], the “Visual Weed Control (%) Obs” value in the assay on DIGSA (17.5 gai/ha) was 10%; in the assay with DIGSA (35 gai/ha), 20%; in the assay on ECHCO (8.75 gai/ha) it was 30%; with ECHCO (17.5 gai/ha), 30%; in the assay on ECHCO (35 gai/ha), 40%; with IPOHE (21 DAA, 8.75 gai/ha), 75%. Moreover, the “Visual Weed Control (%) Obs” value was 70% in the assay on IPOHE (21 DAA, 17.5 gai/ha); 0% in the assay on LEFCH (21 DAA, 8.75 gai/ha); 10% in the assay with LEFCH (21 DAA, 17.5 gai/ha); 0% with BRAPP (21 DAA, 8.75 gai/ha); 40% with BRAPP (21 DAA, 17.5 gai/ha); 80% in the assay with BRAPP (21 DAA, 35 gai/ha).

On to `COC(=O)C1(O)c2ccccc2-c2ccccc21` [Flurenol-methyl], for which the “Visual Weed Control (%) Obs” value with FIMMI (68.75 gai/ha) amounted to 0%; in the assay on FIMMI (137.5 gai/ha), 0%; in the assay on FIMMI (275 gai/ha) it was 20%; with ECHCG (19 DAA, 68.75 gai/ha) it was 0%; with ECHCG (19 DAA, 137.5 gai/ha), 0%; with ECHCG (19 DAA, 275 gai/ha) it was 0%. The “Visual Weed Control (%) Obs” value is 0% in the assay with CYPIR (68.75 gai/ha); 0% with CYPIR (137.5 gai/ha); 60% in the assay with CYPIR (275 gai/ha); 0% in the assay with CYPRO (68.75 gai/ha); 0% in the assay with CYPRO (137.5 gai/ha); 0% in the assay with BRAPP (22 DAA, 68.75 gai/ha). The “Visual Weed Control (%) Obs” value in the assay on BRAPP (22 DAA, 137.5 gai/ha) came out at 0%; in the assay on BRAPP (22 DAA, 275 gai/ha) it was 30%.

`O=C(O)c1ccccc1C(=O)Nc1cccc2ccccc12` [Naptalam, 2-[(1-naphthalenylamino)carbonyl]benzoic acid, reference compound]: the “Visual Weed Control (%) Obs” value with FIMMI (330 gai/ha) is reported as 50%; in the assay on ECHCG (19 DAA, 330 gai/ha) it was 20%; in the assay on CYPRO (330 gai/ha), 0%; with CYPRO (1320 gai/ha), 50%; in the assay with IPOHE (22 DAA, 60 gai/ha) it was 15%; with IPOHE (22 DAA, 120 gai/ha) it was 15%. Further, the “Visual Weed Control (%) Obs” value in the assay with ECHOR (19 DAA, 330 gai/ha) is 20%; with ECHOR (19 DAA, 660 gai/ha) it was 25%; in the assay on ECHOR (19 DAA, 1320 gai/ha) it was 30%; with LEFCH (22 DAA, 60 gai/ha), 15%; with LEFCH (22 DAA, 120 gai/ha), 15%; with BRAPP (22 DAA, 30 gai/ha) it was 0%. Also, the “Visual Weed Control (%) Obs” value in the assay on BRAPP (22 DAA, 60 gai/ha) worked out at 0%; in the assay with BRAPP (22 DAA, 120 gai/ha), 0%.

The record behind these values is patent US20140031217A1, “HERBICIDAL COMPOSITIONS COMPRISING 4-AMINO-3-CHLORO-5-FLUORO-6-(4-CHLORO-2-FLUORO-3-METHOXYPHENYL)PYRIDINE-2-CARBOXYLIC ACID OR A DERIVATIVE THEREOF AND AUXIN TRANSPORT INHIBITORS” (DOW AGROSCIENCES LLC, priority 2012, published 2014).
